According to US5274118A, “Process for preparing (2R)-methyl-4,4,4-trifluorobutylamine” (Imperial Chemical Industries PLC, priority 1990, dated 1993):

Legend:
[1] = system: leukotriene LTD4; assay: guinea-pig aerosol test (LTD4 aerosol challenge, onset of dyspnea); format: in vivo; settings: guinea-pigs
Protocol: According to this procedure, guinea-pigs are pre-dosed with test compound as a solution in poly(ethylene glycol) (generally 1 hour) before an aerosol challenge of leukotriene LTD4 (starting with 2 ml of a 30 microgram/ml solution) and the effect of the test compound on the average time of leukotriene initiated change in breathing pattern (such as onset of dyspnea) recorded and compared with that in undosed, control guinea-pigs. Percent protection engendered by a test compound was calculated from the time delay to the onset of dyspnea compared to that for control animals.

[2] = molecular target: T1, leukotrienes LTC4, LTD4 and/or LTE4 (Cavia porcellus, UniProt Q2NNR5); assay: receptor-ligand binding assay described by Aharony; settings: typically determined
T1 construct: from tissue
T1 sequence (Q2NNR5 1-340): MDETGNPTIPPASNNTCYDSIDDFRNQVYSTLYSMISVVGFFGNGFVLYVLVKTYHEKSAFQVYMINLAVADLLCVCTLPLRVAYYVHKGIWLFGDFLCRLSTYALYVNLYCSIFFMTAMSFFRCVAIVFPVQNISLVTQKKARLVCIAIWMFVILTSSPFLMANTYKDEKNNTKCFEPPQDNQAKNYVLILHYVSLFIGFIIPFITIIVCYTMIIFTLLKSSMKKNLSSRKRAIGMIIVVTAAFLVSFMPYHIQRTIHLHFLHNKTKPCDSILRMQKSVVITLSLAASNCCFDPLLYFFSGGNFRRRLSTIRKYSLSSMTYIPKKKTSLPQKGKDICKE

COc1cc(C(=O)NS(=O)(=O)c2ccccc2C)ccc1Cc1cn(C)c2ccc(C(=O)NC[C@H](C)CC(F)(F)F)cc12 [compound of formula I substantially in the form of the (R)-enantiomer, (R)-3-Methoxy-4-[1-methyl-5-(2-methyl-4,4,4-trifluorobutylcarbamoyl)indol-3-ylmethyl]-N-(2-methylphenylsulfonyl)benzamide]
ED50 ([1]; Cavia porcellus, oral administration, pre-dosed generally 1 hour before LTD4 aerosol challenge, read-out: ED50 (protection against LTD4-induced dyspnea)): 1.1 µmol/kg
untoward side-effects ([1]; oral, at several multiples of the minimum effective dose): without any indication of untoward side-effects
Ki [2]: 0.398 nM
